25 molecules from patent US9346798B2, “Dihydrobenzoxazine and tetrahydroquinoxaline sodium channel inhibitors” (AMGEN INC., priority 2012, dated 2016) can be followed below.

What all share (assay type): cell-based
For one data set, the target named is Nav 1.5 (Homo sapiens (Human), UniProt Q14524). The data set can be described thus: Nav 1.5 in vitro assay, IonWorks Quattro (IWQ) population patch-clamp. The settings on record: HEK 293 cells stably transfected with Nav 1.5; 26th pulse to -20 mV. (The patch-clamp technique gives a direct electrical read-out from membranes.)
In data set [1] the target is T1, Nav 1.7 (Homo sapiens (Human), UniProt Q15858). The data set can be described thus: Nav 1.7 in vitro PX assay, PatchXpress whole cell voltage clamp. The settings on record: HEK 293 cells stably transfected with human Nav1.7; for IC50: partially inactivated state (20 to 50% inactivation); for inhibition at 4.9 µM: HEK293, values marked *, read-out: Nav 1.7 PX percent inhibition at 4.9 μM. The method, boiled down: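 HEK293 cells stably expressing human Nav1.7, whole-cell voltage clamp at a holding potential giving 20–50% inactivation; currents elicited by 20 msec pulses to −10 mV at 0.1 Hz.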

Data set [2] has as its target T1, Nav 1.7. In words: Nav 1.7 in vitro assay, IonWorks Quattro (IWQ) population patch-clamp. Conditions: HEK 293 cells stably transfected with Nav 1.7; 26th pulse to -20 mV.

The structures appear in SMILES notation.

Sequence of Nav 1.5 (Q14524 whole entry): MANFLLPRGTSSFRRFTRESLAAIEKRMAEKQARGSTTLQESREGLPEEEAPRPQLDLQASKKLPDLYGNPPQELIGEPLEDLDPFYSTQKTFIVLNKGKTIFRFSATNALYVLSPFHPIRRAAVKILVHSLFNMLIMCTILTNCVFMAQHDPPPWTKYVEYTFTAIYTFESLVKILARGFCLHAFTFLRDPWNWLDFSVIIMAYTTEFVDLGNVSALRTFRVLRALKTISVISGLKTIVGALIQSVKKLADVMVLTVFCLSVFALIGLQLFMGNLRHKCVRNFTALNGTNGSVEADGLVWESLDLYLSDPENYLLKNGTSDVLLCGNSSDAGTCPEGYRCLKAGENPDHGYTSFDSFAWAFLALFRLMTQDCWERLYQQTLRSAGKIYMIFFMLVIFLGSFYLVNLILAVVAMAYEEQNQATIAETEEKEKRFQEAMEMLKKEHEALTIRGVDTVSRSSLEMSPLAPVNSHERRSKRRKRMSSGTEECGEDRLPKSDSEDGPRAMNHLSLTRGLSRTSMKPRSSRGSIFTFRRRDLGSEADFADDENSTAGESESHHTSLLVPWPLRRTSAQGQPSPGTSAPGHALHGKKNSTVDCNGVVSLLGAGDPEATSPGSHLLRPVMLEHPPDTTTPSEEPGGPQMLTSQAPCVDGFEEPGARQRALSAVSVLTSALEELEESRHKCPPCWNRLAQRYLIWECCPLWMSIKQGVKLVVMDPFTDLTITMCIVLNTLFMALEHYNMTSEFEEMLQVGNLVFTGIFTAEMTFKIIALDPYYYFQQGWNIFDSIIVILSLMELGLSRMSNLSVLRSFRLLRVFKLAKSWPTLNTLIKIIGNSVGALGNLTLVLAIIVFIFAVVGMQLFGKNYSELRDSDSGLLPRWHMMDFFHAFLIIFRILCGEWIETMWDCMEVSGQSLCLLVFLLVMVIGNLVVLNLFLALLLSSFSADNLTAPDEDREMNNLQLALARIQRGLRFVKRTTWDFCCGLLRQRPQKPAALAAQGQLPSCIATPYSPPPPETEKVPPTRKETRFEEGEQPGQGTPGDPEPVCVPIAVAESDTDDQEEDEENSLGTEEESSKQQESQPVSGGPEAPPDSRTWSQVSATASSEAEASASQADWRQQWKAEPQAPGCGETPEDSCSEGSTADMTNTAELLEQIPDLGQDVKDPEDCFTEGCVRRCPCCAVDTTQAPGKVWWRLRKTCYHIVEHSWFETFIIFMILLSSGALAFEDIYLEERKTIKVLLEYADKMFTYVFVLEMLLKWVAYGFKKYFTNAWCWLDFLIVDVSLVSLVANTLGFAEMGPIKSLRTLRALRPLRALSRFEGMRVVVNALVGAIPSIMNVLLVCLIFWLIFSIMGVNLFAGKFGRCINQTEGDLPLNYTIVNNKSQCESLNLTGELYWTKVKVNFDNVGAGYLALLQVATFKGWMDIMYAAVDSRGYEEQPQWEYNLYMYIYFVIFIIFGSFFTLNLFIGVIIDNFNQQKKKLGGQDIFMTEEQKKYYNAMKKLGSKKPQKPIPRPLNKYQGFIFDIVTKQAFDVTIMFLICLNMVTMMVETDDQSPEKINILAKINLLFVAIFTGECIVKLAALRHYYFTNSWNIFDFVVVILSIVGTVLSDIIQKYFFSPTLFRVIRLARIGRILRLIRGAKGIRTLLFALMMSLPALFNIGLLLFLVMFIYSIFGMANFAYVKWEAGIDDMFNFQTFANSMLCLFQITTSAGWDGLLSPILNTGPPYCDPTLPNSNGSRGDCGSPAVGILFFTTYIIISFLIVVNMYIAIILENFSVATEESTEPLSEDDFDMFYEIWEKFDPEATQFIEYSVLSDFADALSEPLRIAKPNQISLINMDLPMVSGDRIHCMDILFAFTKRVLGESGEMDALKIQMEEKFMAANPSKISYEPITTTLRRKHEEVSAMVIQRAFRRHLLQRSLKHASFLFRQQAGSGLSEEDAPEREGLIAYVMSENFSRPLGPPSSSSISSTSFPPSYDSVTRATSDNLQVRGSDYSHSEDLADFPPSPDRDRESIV
T1 sequence (Q15858 whole entry): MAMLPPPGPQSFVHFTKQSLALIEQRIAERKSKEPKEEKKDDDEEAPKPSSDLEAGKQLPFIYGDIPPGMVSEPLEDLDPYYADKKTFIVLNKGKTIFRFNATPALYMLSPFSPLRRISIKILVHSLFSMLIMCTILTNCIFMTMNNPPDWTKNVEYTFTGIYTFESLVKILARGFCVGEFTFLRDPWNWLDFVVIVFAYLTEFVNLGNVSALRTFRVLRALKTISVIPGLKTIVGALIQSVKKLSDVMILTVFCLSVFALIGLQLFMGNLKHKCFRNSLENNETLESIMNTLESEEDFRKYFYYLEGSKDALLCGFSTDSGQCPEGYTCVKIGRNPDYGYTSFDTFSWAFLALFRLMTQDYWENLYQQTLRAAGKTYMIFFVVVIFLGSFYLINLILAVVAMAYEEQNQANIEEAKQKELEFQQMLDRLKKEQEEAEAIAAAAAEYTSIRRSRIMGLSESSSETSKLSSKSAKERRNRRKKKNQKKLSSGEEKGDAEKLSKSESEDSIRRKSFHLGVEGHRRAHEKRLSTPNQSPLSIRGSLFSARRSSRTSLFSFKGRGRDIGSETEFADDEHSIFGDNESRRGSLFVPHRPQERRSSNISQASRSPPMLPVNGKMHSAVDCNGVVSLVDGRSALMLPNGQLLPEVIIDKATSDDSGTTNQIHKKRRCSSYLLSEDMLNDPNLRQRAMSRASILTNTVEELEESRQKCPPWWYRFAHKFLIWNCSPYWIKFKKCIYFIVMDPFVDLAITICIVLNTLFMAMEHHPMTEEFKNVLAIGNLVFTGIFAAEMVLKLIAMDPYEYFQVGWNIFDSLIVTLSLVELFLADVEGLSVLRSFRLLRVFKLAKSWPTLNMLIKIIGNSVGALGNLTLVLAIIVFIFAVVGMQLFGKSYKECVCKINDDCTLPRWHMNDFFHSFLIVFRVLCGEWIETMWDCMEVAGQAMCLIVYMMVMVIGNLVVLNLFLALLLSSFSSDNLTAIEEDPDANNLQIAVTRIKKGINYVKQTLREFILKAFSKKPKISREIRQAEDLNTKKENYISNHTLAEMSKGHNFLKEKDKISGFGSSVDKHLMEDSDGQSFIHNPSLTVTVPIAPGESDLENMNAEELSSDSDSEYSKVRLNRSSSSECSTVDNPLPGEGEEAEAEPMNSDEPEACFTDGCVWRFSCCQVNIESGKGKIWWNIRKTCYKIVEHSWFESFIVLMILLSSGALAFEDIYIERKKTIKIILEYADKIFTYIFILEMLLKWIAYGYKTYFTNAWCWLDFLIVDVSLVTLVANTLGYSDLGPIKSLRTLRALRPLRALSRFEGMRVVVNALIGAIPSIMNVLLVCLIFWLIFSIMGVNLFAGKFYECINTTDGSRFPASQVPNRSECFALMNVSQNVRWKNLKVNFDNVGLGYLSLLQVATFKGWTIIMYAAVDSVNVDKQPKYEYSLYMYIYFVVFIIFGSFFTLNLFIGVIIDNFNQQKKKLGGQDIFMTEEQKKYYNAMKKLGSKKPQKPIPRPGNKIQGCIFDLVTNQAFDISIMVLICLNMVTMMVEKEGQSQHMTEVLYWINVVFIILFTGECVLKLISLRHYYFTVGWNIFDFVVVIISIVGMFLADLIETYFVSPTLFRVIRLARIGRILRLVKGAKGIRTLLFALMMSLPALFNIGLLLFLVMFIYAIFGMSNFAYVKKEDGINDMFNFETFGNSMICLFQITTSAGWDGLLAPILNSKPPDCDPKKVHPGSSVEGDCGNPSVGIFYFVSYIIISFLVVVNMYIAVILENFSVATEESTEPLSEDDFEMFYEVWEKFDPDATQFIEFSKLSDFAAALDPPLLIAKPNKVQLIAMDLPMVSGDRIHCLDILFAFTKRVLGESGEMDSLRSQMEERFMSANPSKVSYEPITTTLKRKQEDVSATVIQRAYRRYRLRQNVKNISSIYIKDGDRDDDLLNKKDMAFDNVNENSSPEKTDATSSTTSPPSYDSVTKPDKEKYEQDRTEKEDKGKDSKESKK

For orientation: IC50 means the concentration that gives 50% inhibition. Lower therefore signals inhibition by little substance. Turning to `N#Cc1cc(C(F)(F)F)ccc1N1CCOc2cc(S(=O)(=O)Nc3ncns3)ccc21` [Example 31, 4-(2-Cyano-4-(Trifluoromethyl)Phenyl)-N-(1,2,4-Thiadiazol-5-Yl)-3,4-Dihydro-2H-Benzo[B][1,4]Oxazine-7-Sulfonamide], the IC50 at Nav 1.5 was 1.46 µM; against Nav 1.7 [1] it was 0.0914 µM; against Nav 1.7 [2] it was 0.016 µM.
In the same order, the values of `COc1ccc(N2CCOc3cc(S(=O)(=O)Nc4nccs4)ccc32)c(OC)c1` [Example 120, 4-(2,4-Dimethoxyphenyl)-N-(thiazol-2-yl)-3,4-dihydro-2H-benzo[b][1,4]oxazine-7-sulfonamide] are above 10 µM, 2.24 µM and 0.796 µM.
`O=S(=O)(Nc1nccs1)c1ccc2c(c1)OCCN2c1ccc(Cl)c(F)c1` [Example 155, 4-(4-Chloro-3-Fluorophenyl)-N-(Thiazol-2-Yl)-3,4-Dihydro-2H-Benzo[B][1,4]Oxazine-7-Sulfonamide 2,2,2-Trifluoroacetate]: the IC50 at Nav 1.5 was above 10 µM; on Nav 1.7 [1] it was 12.6 µM; on Nav 1.7 [2] it was 2.37 µM.
By inhibition is commonly meant the drop in the measured response relative to a control, in per cent. `O=S(=O)(Nc1nccs1)c1ccc2c(c1)OCCN2c1ccc2ncccc2c1` [Example 66, 4-(Quinolin-6-Yl)-N-(Thiazol-2-Yl)-3,4-Dihydro-2H-Benzo[B][1,4]Oxazine-7-Sulfonamide 2,2,2-Trifluoroacetate]: the half-inhibitory concentration (IC50) was above 10 µM on Nav 1.5 and 3.73 µM at Nav 1.7 [2]. Besides, the inhibition at 4.9 µM at Nav 1.7 [1] came to 22.8%.
On to `N#Cc1cc(-c2ccc(F)cc2)ccc1N1CCOc2cc(S(=O)(=O)Nc3nccs3)ccc21` [Example 199, 4-(3-Cyano-4′-Fluoro-[1,1′-Biphenyl]-4-Yl)-N-(Thiazol-2-Yl)-3,4-Dihydro-2H-Benzo[B][1,4]Oxazine-7-Sulfonamide], for which the half-inhibitory concentration (IC50) against Nav 1.5 turned out to be 1.22 µM; at Nav 1.7 [1], 0.387 µM; at Nav 1.7 [2], 0.469 µM.
In the case of `O=S(=O)(Nc1cscn1)c1ccc2c(c1)OCCN2c1ccc(C(F)(F)F)cc1Cl` [Example 11, 4-(2-Chloro-4-(Trifluoromethyl)Phenyl)-N-(Thiazol-4-Yl)-3,4-Dihydro-2H-Benzo[B][1,4]Oxazine-7-Sulfonamide], the concentration for half-maximal inhibition (IC50) against Nav 1.5 was above 10 µM; against Nav 1.7 [1], 12.6 µM; at Nav 1.7 [2], 3.21 µM.
Take `Cc1nsc(NS(=O)(=O)c2ccc3c(c2)OCCN3c2ccc(C(F)(F)F)cc2Cl)n1` [Example 10, 4-(2-Chloro-4-(Trifluoromethyl)Phenyl)-N-(3-Methyl-1,2,4-Thiadiazol-5-Yl)-3,4-Dihydro-2H-Benzo[B][1,4]Oxazine-7-Sulfonamide]: the IC50 at Nav 1.5 is above 10 µM; against Nav 1.7 [1], 6.75 µM; on Nav 1.7 [2] it was 4.61 µM.
In the same order, the values of `Cc1ccc(F)cc1N1CCOc2cc(S(=O)(=O)Nc3nccs3)ccc21` [Example 79, 4-(5-Fluoro-2-Methylphenyl)-N-(Thiazol-2-Yl)-3,4-Dihydro-2H-Benzo[B][1,4]Oxazine-7-Sulfonamide 2,2,2-Trifluoroacetate] are above 10 µM, 1.18 µM and 0.216 µM.
With `O=S(=O)(Nc1ccon1)c1ccc2c(c1)OCCN2c1ccc(C(F)(F)F)cc1Cl` [Example 13, 4-(2-Chloro-4-(Trifluoromethyl)Phenyl)-N-(Isoxazol-3-Yl)-3,4-Dihydro-2H-Benzo[B][1,4]Oxazine-7-Sulfonamide], the IC50 against Nav 1.5 was above 10 µM; on Nav 1.7 [1], 5.16 µM; against Nav 1.7 [2], 1.72 µM.
The corresponding values for `N#Cc1cc(N2CCOc3cc(S(=O)(=O)Nc4nccs4)ccc32)ccc1F` [Example 175, 4-(3-Cyano-4-Fluorophenyl)-N-(Thiazol-2-Yl)-3,4-Dihydro-2H-Benzo[B][1,4]Oxazine-7-Sulfonamide 2,2,2-Trifluoroacetate] are 5.08 µM, 1.39 µM and 0.202 µM.
The corresponding values for `O=S(=O)(Nc1nccs1)c1ccc2c(c1)OCCN2c1ccc(C(F)(F)F)cc1C[C@H](O)CO` (single isomer, unassigned) [Example 208] are 0.896 µM, 0.258 µM and 0.0185 µM.
Regarding `O=S(=O)(Nc1nccs1)c1ccc2c(c1)OCCN2Cc1c[nH]c2cccnc12` [Example 222, 4-((1H-Pyrrolo[3,2-B]Pyridin-3-Yl)Methyl)-N-(Thiazol-2-Yl)-3,4-Dihydro-2H-Benzo[B][1,4]Oxazine-7-Sulfonamide], the IC50 was above 10 µM on Nav 1.5 and 3.43 µM against Nav 1.7 [2]. Further, the inhibition at 4.9 µM at Nav 1.7 [1] was found to be 33.8%.
Regarding `Cc1cc(OC(F)F)cnc1N1CCOc2cc(S(=O)(=O)Nc3nccs3)ccc21` [Example 146, 4-(5-(Difluoromethoxy)-3-methylpyridin-2-yl)-N-(thiazol-2-yl)-3,4-dihydro-2H-benzo[b][1,4]oxazine-7-sulfonamide], the results for the IC50 at Nav 1.5, against Nav 1.7 [1] and on Nav 1.7 [2] were 5.22 µM, 4.73 µM and 0.416 µM, respectively.
The corresponding values for `O=S(=O)(Nc1ncns1)c1ccc2c(c1)OCCN2c1ccc(C(F)(F)F)cc1-c1cn[nH]c1` [Example 4, 4-(2-(1H-Pyrazol-4-Yl)-4-(Trifluoromethyl)Phenyl)-N-(1,2,4-Thiadiazol-5-Yl)-3,4-Dihydro-2H-Benzo[B][1,4]Oxazine-7-Sulfonamide] are 0.944 µM, 0.0576 µM and 0.00933 µM.
`O=S(=O)(Nc1cnccn1)c1ccc2c(c1)OCCN2c1ccc(C(F)(F)F)cc1C1=CCNCC1` [Example 88, N-(Pyrazin-2-Yl)-4-(2-(1,2,3,6-Tetrahydropyridin-4-Yl)-4-(Trifluoromethyl)Phenyl)-3,4-Dihydro-2H-Benzo[B][1,4]Oxazine-7-Sulfonamide]: the results for the half-maximal inhibitory concentration (IC50) against Nav 1.5, at Nav 1.7 [1] and against Nav 1.7 [2] were above 10 µM, 0.737 µM and 0.224 µM, respectively.
The corresponding values for `Nc1cc(-c2cc(C(F)(F)F)ccc2N2CCOc3cc(S(=O)(=O)Nc4ncns4)ccc32)ccn1` [Example 29, 4-(2-(2-Aminopyridin-4-Yl)-4-(Trifluoromethyl)Phenyl)-N-(1,2,4-Thiadiazol-5-Yl)-3,4-Dihydro-2H-Benzo[B][1,4]Oxazine-7-Sulfonamide] are 0.634 µM, 0.079 µM and 0.0095 µM.
With `COc1cnc(N2CCOc3cc(S(=O)(=O)Nc4nccs4)ccc32)c(OC)c1` [Example 144, 4-(3,5-Dimethoxypyridin-2-yl)-N-(thiazol-2-yl)-3,4-dihydro-2H-benzo[b][1,4]oxazine-7-sulfonamide], the figures for the IC50 against Nav 1.5, on Nav 1.7 [1] and at Nav 1.7 [2] were above 10 µM, 7.67 µM and 0.894 µM, respectively.
The corresponding values for `O=S(=O)(Nc1cscn1)c1ccc2c(c1)OCCN2c1ccc(C(F)(F)F)cc1Br` [Example 61, 4-(2-Bromo-4-(Trifluoromethyl)Phenyl)-N-(Thiazol-4-Yl)-3,4-Dihydro-2H-Benzo[B][1,4]Oxazine-7-Sulfonamide] are above 10 µM, 2.43 µM and 0.679 µM.
As to `O=S(=O)(Nc1ccncn1)c1ccc2c(c1)OCCN2c1ccc(C(F)(F)F)cc1Cl` [Example 32, 4-(2-Chloro-4-(Trifluoromethyl)Phenyl)-N-(Pyrimidin-4-Yl)-3,4-Dihydro-2H-Benzo[B][1,4]Oxazine-7-Sulfonamide], the IC50 at Nav 1.5 turned out to be 4.77 µM; against Nav 1.7 [1], 0.534 µM; against Nav 1.7 [2], 0.0725 µM.
The corresponding values for `N#Cc1ccccc1N1CCOc2cc(S(=O)(=O)Nc3ncns3)ccc21` [Example 57, 4-(2-Cyanophenyl)-N-(1,2,4-Thiadiazol-5-Yl)-3,4-Dihydro-2H-Benzo[B][1,4]Oxazine-7-Sulfonamide] are 6.7 µM, 1.93 µM and 0.154 µM.
The corresponding values for `COc1cnccc1N1CCOc2cc(S(=O)(=O)Nc3nccs3)ccc21` [Example 158, 4-(3-methoxypyridin-4-yl)-N-(thiazol-2-yl)-3,4-dihydro-2H-benzo[b][1,4]oxazine-7-sulfonamide] are above 10 µM, 4.51 µM and 1.49 µM.
`O=S(=O)(Nc1cccnn1)c1ccc2c(c1)OCCN2c1ccc(C(F)(F)F)cc1C1=CCNCC1` [Example 87, N-(Pyridazin-3-Yl)-4-(2-(1,2,3,6-Tetrahydropyridin-4-Yl)-4-(Trifluoromethyl)Phenyl)-3,4-Dihydro-2H-Benzo[B][1,4]Oxazine-7-Sulfonamide]: the values for the IC50 against Nav 1.5, against Nav 1.7 [1] and on Nav 1.7 [2] were above 10 µM, 0.381 µM and 0.026 µM, respectively.
With `N#Cc1c(F)cccc1N1CCOc2cc(S(=O)(=O)Nc3nccs3)ccc21` [Example 187, 4-(2-Cyano-3-Fluorophenyl)-N-(Thiazol-2-Yl)-3,4-Dihydro-2H-Benzo[B][1,4]Oxazine-7-Sulfonamide], the IC50 on Nav 1.5 is above 10 µM; against Nav 1.7 [1], 7.73 µM; on Nav 1.7 [2], 0.417 µM.
In the same order, the values of `COc1cc(F)ccc1N1CCOc2cc(S(=O)(=O)Nc3nccs3)ccc21` [Example 150, 4-(4-Fluoro-2-methoxyphenyl)-N-(thiazol-2-yl)-3,4-dihydro-2H-benzo[b][1,4]oxazine-7-sulfonamide] are 5.58 µM, 0.192 µM and 0.017 µM.
With `N#Cc1cccc(F)c1N1CCOc2cc(S(=O)(=O)Nc3nccs3)ccc21` [Example 159, 4-(2-Cyano-6-Fluorophenyl)-N-(Thiazol-2-Yl)-3,4-Dihydro-2H-Benzo[B][1,4]Oxazine-7-Sulfonamide], the figures for the concentration for half-maximal inhibition (IC50) against Nav 1.5, at Nav 1.7 [1] and on Nav 1.7 [2] were above 10 µM, 8.15 µM and 1.42 µM, respectively.
